In patent publication US20260374818A1, “CATIONIC PEPTIDES WITH BROAD SPECTRUM ACTIVITY” (priority 2023, published 2026):
Where a SMILES comes first, the peptide text is derived from it. [ ]: non-standard residue; d: D form.

What was measured:
MRSA USA300 biofilms = test: Biofilm inhibition by >95% pure peptides (crystal violet), MRSA; assay type: cell-based, methicillin resistant Staphylococcus aureus; conditions: for minimum inhibitory concentration of peptide that inhibited at least 90% of biofilm growth (MBIC90): MRSA USA300 biofilms, >95% pure peptides, 10% TSB + 0.1% glucose
MRSA preformed biofilms = test: Biofilm eradication of 24-hr preformed biofilms (TTC metabolic dye), MRSA; assay type: cell-based, methicillin resistant Staphylococcus aureus; conditions: 24-hr preformed biofilms treated overnight
[1] = test system: MRSA biofilms on human skin organoid; test: Skin organoid biofilm infection model, peptide solution, MRSA; assay type: cell-based, methicillin resistant Staphylococcus aureus; conditions: peptide solution 4 hrs (FIG. 3A)
[2] = test system: PAO1 biofilms on human skin organoid; test: Skin organoid biofilm infection model, peptide solution, PAO1; assay type: cell-based, Pseudomonas aeruginosa; conditions: peptide solution 4 hrs (FIG. 3B)
[3] = Peptide aggregation in RPMI + 10% FBS with PBMCs (microscopy); assay type: physicochemical; conditions: overnight
Procedure: Peptide Aggregation: Peptide aggregation was assessed qualitatively by examining samples of peptides mixed with PBMCs following overnight incubation at 37 °C and 5% CO2. All samples were prepared in RPMI media containing 10% FBS the same manner as the cytotoxicity assays described above. Visualization of aggregates was done using a Nikon Eclipse TS100 Inverted Microscope at 10× magnification.
In aggregation studies, peptides were added to PBMCs in RPMI media containing 10% FBS and incubated overnight at 37 °C in 5% CO2.
The peptides were also evaluated for their tendency to aggregate when added to RPMI tissue culture media containing 10% fetal bovine serum in the presence of PBMCs. Peptides were added to PBMCs in RPMI media containing 10% FBS and incubated overnight at 37 °C in 5% CO2. […] Compared to a highly aggregation prone peptide, 1018 [Haney, E. F., et al. (2017). Aggregation and its influence on the immunomodulatory activity of synthetic innate defense regulator peptides.
As with the DJK-5 derivatives above, the AB103-D derivatives were evaluated for their tendency to aggregate when added to RPMI tissue culture media containing 10% fetal bovine serum in the presence of PBMCs. Peptides were added to PBMCs in RPMI media containing 10% FBS and incubated overnight at 37 °C in 5% CO2.

MRSA USA300 = test: Murine sinusitis model, MRSA; assay type: in vivo, mouse; methicillin resistant Staphylococcus aureus; conditions: MRSA USA300, 0.1 mg dose, compared to DJK5
From the text: (§1) FIGS. 15A-15I show peptides AB101-D, AB102-D and AB103-D compared to DJK5 in a murine sinusitis model of bacterial infections. MRSA USA300, nasal cavity (FIG. 15A) P. aeruginosa LESB58 (FIG. 15B and FIG. 15C, nasal cavity); MRSA USA300, lung tissue (FIG. 15D) P. aeruginosa LESB58 (FIG. 15E and FIG. 15F, lung tissue); and MRSA USA300, weight change (FIG. 15G) P. aeruginosa LESB58 (FIG. 15H and FIG. 15I, weight change).
(§2) A murine sinusitis model of bacterial infections in the nasal cavity of mice [Alford et al. (2021). Murine model of sinusitis infection for screening antimicrobial and immunomodulatory therapies. Frontiers in Cellular and Infection Microbiology., 11, 621081] was used to determine the efficacy of D-amino acid peptides AB101-D, AB102-D and AB103-D compared to DJK5. […]. Treatment was applied either as dropwise administration of a peptide solution (20 μl) to the infected naris of a mouse (FIGS. 15A, 15B, 15D, 15E, 15G, 15H) or peptide was delivered using a Respimat® inhaler device (FIGS. 15C, 15F, 15I). Mice were monitored and weighed once daily for up to three days then euthanized prior to collection of nasal lavage fluid and lung tissue for bacterial enumeration. The limit of detection is shown by the dotted line at log CFU=2. […] Accordingly, the results indicated enhanced efficacy of D-amino acid peptides AB101-D, AB102-D and AB103-D compared to DJK5 in this murine model.

P. aeruginosa LESB58 = test: Murine sinusitis model, P. aeruginosa; assay type: in vivo, mouse; Pseudomonas aeruginosa; conditions: P. aeruginosa LESB58, 0.1 mg dose, compared to DJK5
From the text: as §1, §2

[4] = test system: 3-day-old oral plaque (multispecies) biofilms; test: Oral plaque biofilm model, long-term (1-3 days) exposure, dead cell volume; assay type: cell-based; conditions: 1 or 5 μg/ml, daily for 3 days, compared to DJK5 (FIG. 16A)
[5] = test system: P. aeruginosa PAO1 biofilms; conditions: for Biofilm growth inhibition: P. aeruginosa PAO1 (FIG. 20D); for minimum inhibitory concentration of peptide that inhibited at least 90% of biofilm growth (MBIC90): P. aeruginosa PAO1 biofilms, >95% pure peptides, BM2 minimal media; for More active than AB103-D against PAO1 biofilms: PAO1, >95% pure peptides
PAO1 preformed biofilms = conditions: read-out: Biofilm Eradication IC50; PAO1, 24-hr preformed biofilms treated overnight, TTC
[6] = test system: peripheral blood mononuclear cells (PBMCs); test: Cytotoxicity (LDH release), PBMCs
N/TERT keratinocytes = test: Cytotoxicity (LDH release), N/TERT keratinocytes
[7] = test system: human bronchiolar epithelial cells (HBEs); test: Cytotoxicity (LDH release), human bronchiolar epithelial cells
[8] = test system: P. aeruginosa PAO1 biofilms; test: Biofilm inhibition by SPOT-synthesized AB103-D variants (crystal violet), P. aeruginosa; assay type: cell-based, Pseudomonas aeruginosa; conditions: P. aeruginosa PAO1, SPOT peptides
[9] = test system: P. aeruginosa PAO1 planktonic cells; test: Planktonic growth inhibition by pure AB103-D derivatives, P. aeruginosa; assay type: cell-based, Pseudomonas aeruginosa
Procedure: (§3) The effect of peptide on bacterial and biofilm growth was assessed using the biofilm inhibition assay [Haney, E. F., Trimble, M. J., & Hancock, R. E. W. (2021) FIGS. 20A-20D. Microtiter plate assays to assess antibiofilm activity against bacteria. Nature Protocols, 16(5), 2615-2632]. The effect of peptide on planktonic growth and biofilm growth of MRSA USA300 (FIG. 20A, FIG. 20C) and P. aeruginosa PAO1 (FIGS. 20B, 20D) was assessed and compared to the activity seen for AB103-D (gray stars) and DJK5 (gray open circles). Data shown are the average of three biological replicates. Error bars have been omitted for clarity. […]. The results indicated enhanced antibiofilm and antibacterial activity of AB103-D derivatives compared to DJK5.

red blood cells = test: Hemolysis; assay type: cell-based, human; conditions: 4 hours
Procedure: Hemolysis: Peptide induced hemolysis was evaluated according to methods described previously [Hilchie, A. L., et al. (2016). Mastoparan is a membranolytic anti-cancer peptide that works synergistically with gemcitabine in a mouse model of mammary carcinoma. Biochimica Et Biophysica Acta, 1858(12), 3195-3204]. Briefly, red blood cells were obtained, with human ethics approval, from the blood of healthy volunteers collected in a sodium heparin tube and then rinsed three times in PBS, centrifuging between washes, to obtain the hematocrit (100% RBC). A 2.5% RBCs suspension was exposed to peptide at varying concentrations and incubated at 37 C in a 5% CO2 humidified atmosphere for 4 hours. Supernatants were collected following centrifugation (1100 rpm) and transferred to a flat bottom microtitre plate. The absorbance (490 nm) of each supernatant was measured on a BioTek Epoch Microplate Spectrophotometer. Percent hemolysis was calculated by comparing the absorbance arising from peptide treated cells to RBCs treated with […] (0% hemolysis) or lysed with 1% Triton X-100 (100% hemolysis).

[10] = test system: MRSA USA300 planktonic cells; test: Planktonic growth inhibition by pure AB103-D derivatives, MRSA; assay type: cell-based, methicillin resistant Staphylococcus aureus
Procedure: as §3

[11] = 200 μg/ml or highest concentration

SMILES | Peptide aggregation ([3]; 50 μg/ml) | Cytotoxicity (LDH) [6] | Activity against PAO1 biofilms compared to AB103-D [8] | minimum inhibitory concentration of peptide that inhibited at least 90% of biofilm growth (MBIC90) (MRSA USA300 biofilms) | Peptide aggregation [3, 11] | Planktonic growth inhibition [9] | Biofilm growth inhibition [5] | minimum inhibitory concentration of peptide that inhibited at least 90% of biofilm growth (MBIC90) ([5]; crystal violet) | More active than AB103-D against PAO1 biofilms [5] | other results
CC[C@@H](C)[C@@H](NC(=O)[C@@H](CCCNC(=N)N)NC(=O)[C@@H](CCCCN)NC(=O)[C@@H](CCCNC(=N)N)NC(=O)[C@H](NC(=O)[C@H](NC(=O)[C@@H](CCCNC(=N)N)NC(=O)[C@H](NC(=O)[C@H](N)CCCNC(=N)N)C(C)C)C(C)C)[C@H](C)CC)C(=O)N[C@H](CCCNC(=N)N)C(=O)N[C@H](Cc1c[nH]c2ccccc12)C(=O)N[C@@H](C(N)=O)C(C)C [AB102-D, rvrvirkrirwv-NH2] (H-[dR][dV][dR][dV][dI][dR][dK][dR][dI][dR][dW][dV]-NH2) | No appreciable aggregation | low toxicity | – | – | – | – | – | – | – | IC50 (MRSA USA300 biofilms; MRSA, 24 hours): 0.15 µM; IC50 (MRSA preformed biofilms): 3.7 µM; Antibiofilm activity on skin organoid [1]: excellent antibiofilm activity; Antibiofilm activity on skin organoid [2]: excellent antibiofilm activity; Bacteria in nasal cavity and lungs (MRSA USA300): reduced the amount of bacteria in the nasal cavity and lungs of mice much more than DJK5 treatment; Bacteria in nasal cavity and lungs (P. aeruginosa LESB58): reduced the amount of bacteria in the nasal cavity and lungs of mice much more than DJK5 treatment; Proportion of dead biofilm cells [4]: killed more of the biofilm cells; IC50 ([5]; read-out: Biofilm Inhibition IC50, PAO1, 24 hours, crystal violet): 16.5 µM; IC50 (PAO1 preformed biofilms): 23 µM; Cytotoxicity (LDH) (N/TERT keratinocytes): low toxicity; Cytotoxicity (LDH) [7]: low toxicity
CC[C@@H](C)[C@@H](NC(=O)[C@H](NC(=O)[C@@H](CCCNC(=N)N)NC(=O)[C@@H](Cc1c[nH]c2ccccc12)NC(=O)[C@@H](CCC(N)=O)NC(=O)[C@H](NC(=O)[C@@H](CCCNC(=N)N)NC(=O)[C@H](NC(=O)[C@H](NC(=O)[C@@H](CCCNC(=N)N)NC(=O)[C@H](NC(=O)[C@H](N)CCCNC(=N)N)C(C)C)C(C)C)[C@H](C)CC)C(C)C)[C@H](C)CC)C(N)=O [AB112-D, rvrvirvqwrii] (H-[dR][dV][dR][dV][dI][dR][dV][dQ][dW][dR][dI][dI]-NH2) | peptide aggregation was again observed | – | activity superior to that of AB103-D | 1 µM | strongly aggregated | among the most active | among the most active | 2 µM | up to 4 fold | –
CC[C@@H](C)[C@@H](NC(=O)[C@@H](C)NC(=O)[C@@H](CCCNC(=N)N)NC(=O)[C@@H](Cc1c[nH]c2ccccc12)NC(=O)[C@@H](CCC(N)=O)NC(=O)[C@H](NC(=O)[C@@H](CCCNC(=N)N)NC(=O)[C@H](NC(=O)[C@H](NC(=O)[C@@H](Cc1c[nH]c2ccccc12)NC(=O)[C@H](NC(=O)[C@H](N)CCCNC(=N)N)C(C)C)C(C)C)[C@H](C)CC)C(C)C)C(N)=O [AB109-D, rvwvirvqwrai] (H-[dR][dV][dW][dV][dI][dR][dV][dQ][dW][dR][dA][dI]-NH2) | peptide aggregation was again observed | most toxic towards PBMCs at the highest peptide concentration evaluated of 200 μg/ml | activity superior to that of AB103-D | 1 µM | strongly aggregated | among the most active | among the most active | 2 µM | up to 4 fold | Hemolysis (red blood cells): substantial hemolysis at concentrations higher than 25 μg/ml
CC[C@@H](C)[C@@H](NC(=O)[C@@H](CCCNC(=N)N)NC(=O)[C@@H](CCCNC(=N)N)NC(=O)[C@@H](Cc1c[nH]c2ccccc12)NC(=O)[C@@H](CCC(N)=O)NC(=O)[C@H](NC(=O)[C@@H](CCCNC(=N)N)NC(=O)[C@H](NC(=O)[C@H](NC(=O)[C@@H](CCCNC(=N)N)NC(=O)[C@H](NC(=O)[C@H](N)CCCNC(=N)N)C(C)C)C(C)C)[C@H](C)CC)C(C)C)C(N)=O [AB113-D, rvrvirvqwrri] (H-[dR][dV][dR][dV][dI][dR][dV][dQ][dW][dR][dR][dI]-NH2) | – | – | activity superior to that of AB103-D | 0.5 µM | – | among the most active | among the most active | 2 µM | up to 4 fold | Planktonic growth inhibition [10]: among the most active against planktonic cells
